For three molecules, solution stability and MIC results are on record in patent EP0008888A1, “Beta-lactam antibacterial compounds, their preparation and pharmaceutical compositions containing them” (BEECHAM GROUP PLC, priority 1978, dated 1980).

≈ marks a conversion by molar mass, not a printed value. Read-outs that look alike come from different tables or passages of the source.

A short description of data set [1]: Solution stability of an aqueous solution (uv spectrum). Type of data set: physicochemical. The note with it: aqueous solution (ca 2 mg ml^-1) stored at 5° for 2 months.
Data set [2] concerns Citrobacter freundii E8. The data set is described as follows: Antibacterial activity (MIC). Type of data set: cell-based.
The test system of data set [3] is Escherichia coli ESS. The data set is described as follows: Antibacterial activity (MIC). Type of data set: cell-based.
The subject of data set [4] is Escherichia coli NCTC 10418. As to the kind of experiment: Antibacterial activity (MIC). Type of data set: cell-based.
Data set [5] concerns Escherichia coli 0111. As to the kind of experiment: Antibacterial activity (MIC). The format is cell-based.
Data set [6] concerns Escherichia coli ATCC 27166. As to the kind of experiment: Antibacterial activity (MIC). Type of data set: cell-based.
Data set [7] has as its system Klebsiella aerogenes A. As to the kind of experiment: Antibacterial activity (MIC). Type of data set: cell-based.
Data set [8] concerns Salmonella typhimurium CT10. As to the kind of experiment: Antibacterial activity (MIC). The format is cell-based.
Data set [9] deals with Shigella sonnei MB11967. The data set is described as follows: Antibacterial activity (MIC). Type of data set: cell-based.
Data set [10] deals with Branhamella catarrhalis 1502. As to the kind of experiment: Antibacterial activity (MIC). The format is cell-based. The conditions noted are these: Branhamella catarrhalis 1502.
Data set [11] deals with Bacillus subtilis ATCC 6633. The data set is described as follows: Antibacterial activity (MIC). The format is cell-based.
In data set [12] the test system is Staphylococcus aureus Oxford. As to the kind of experiment: Antibacterial activity (MIC). The format is cell-based.
In data set [13] the test system is Streptococcus pneumoniae CN33. The data set is described as follows: Antibacterial activity (MIC). Type of data set: cell-based. The conditions noted are these: Streptococcus pneumoniae CN33.
Data set [14] concerns Streptococcus pyogenes CN10. The data set is described as follows: Antibacterial activity (MIC). The format is cell-based. The conditions noted are these: Streptococcus pyogenes CN10.

In the case of `CCSC1=C(C(=O)[O-])N2C(=O)C(CC)C2C1.[Na+]` (stereo not drawn), the solution stability entry in data set [1] was “without deterioration”.
For orientation: MIC means the least concentration at which growth counts as inhibited. As for `CCSC1=C(C(=O)OCc2ccc([N+](=O)[O-])cc2)N2C(=O)CC2C1` (single isomer, unassigned; (+)) [(+), (+) p-Nitrobenzyl 3-ethylthio-7-oxo-1-azabicyclo[3.2.0] hept-2-ene-2-carboxylate], the MIC in data set [2] (Citrobacter freundii E8) worked out at 25 µg/mL (≈ 71.8 µM); in [3], 5.0 µg/mL (≈ 14.4 µM); in data set [4] (Escherichia coli NCTC 10418), 25 µg/mL (≈ 71.8 µM); in data set [5] (Escherichia coli 0111), 50 µg/mL (≈ 144 µM); in [6] (Escherichia coli ATCC 27166), 12.5 µg/mL (≈ 35.9 µM); in data set [7], 12.5 µg/mL (≈ 35.9 µM). Moreover, the MIC is 50 µg/mL (≈ 144 µM) in [8]; 50 µg/mL (≈ 144 µM) in data set [9] (Shigella sonnei MB11967); 0.5 µg/mL (≈ 1.44 µM) in data set [10]; 25 µg/mL (≈ 71.8 µM) in data set [11] (Bacillus subtilis ATCC 6633); greater than 50 µg/mL in [12]; 0.5 µg/mL (≈ 1.44 µM) in data set [13]. Further, in [14], the minimum inhibitory concentration (MIC) came to 1.2 µg/mL (≈ 3.44 µM).
Turning to `CCSC1=C(C(=O)OCc2ccc([N+](=O)[O-])cc2)N2C(=O)CC2C1` (single isomer, unassigned; (-)) [(-), (-) p-Nitrobenzyl 3-ethylthio-7-oxo-1-azabicyclo[3.2.0] hept-2-ene-2-carboxylate], the MIC in [2] (Citrobacter freundii, E8, Citrobacter freundii E8, read-out: MIC) was greater than 50 µg/mL; in data set [3], 25 µg/mL (≈ 71.8 µM); in data set [4] (Escherichia coli, NCTC10418, Escherichia coli NCTC 10418, read-out: MIC), greater than 50 µg/mL; in data set [5] (Escherichia coli, 0111, Escherichia coli 0111, read-out: MIC) it was greater than 50 µg/mL; in [6] (Escherichia coli, ATCC27166, Escherichia coli ATCC 27166, read-out: MIC), 25 µg/mL (≈ 71.8 µM); in data set [7] (Klebsiella aerogenes, read-out: MIC), 25 µg/mL (≈ 71.8 µM). Further, the MIC is greater than 50 µg/mL in data set [8] (Salmonella enterica, TYPHIMURIUM, read-out: MIC); greater than 50 µg/mL in data set [9] (Shigella sonnei, MB11967, Shigella sonnei MB11967, read-out: MIC); 2.5 µg/mL (≈ 7.18 µM) in [10]; 50 µg/mL (≈ 144 µM) in data set [11] (Bacillus subtilis, ATCC6633, Bacillus subtilis ATCC 6633, read-out: MIC); greater than 50 µg/mL in [12] (read-out: MIC); 2.5 µg/mL (≈ 7.18 µM) in data set [13]. The molecule further displayed an MIC in [14] of 2.5 µg/mL (≈ 7.18 µM).
